A short description of data set [1]: Ocular toxicity in monkey at 1000 ug/ml post single dose administration after 48 hrs. As to conditions: rhesus monkey, in vivo, dose 1000 µg/ml. Set-up: species or system Macaca mulatta.
Data set [2] has as its system Mus musculus. Kind of data set: Increase in IP-10 level in intranasally dosed BALB/c mouse nasal lavage after 6 hrs. The data set is classed as functional, organism-based.
The target of data set [3] is T1, Toll-like receptor 7 (Macaca fascicularis) (UniProt B3Y652).
T1 sequence (whole entry): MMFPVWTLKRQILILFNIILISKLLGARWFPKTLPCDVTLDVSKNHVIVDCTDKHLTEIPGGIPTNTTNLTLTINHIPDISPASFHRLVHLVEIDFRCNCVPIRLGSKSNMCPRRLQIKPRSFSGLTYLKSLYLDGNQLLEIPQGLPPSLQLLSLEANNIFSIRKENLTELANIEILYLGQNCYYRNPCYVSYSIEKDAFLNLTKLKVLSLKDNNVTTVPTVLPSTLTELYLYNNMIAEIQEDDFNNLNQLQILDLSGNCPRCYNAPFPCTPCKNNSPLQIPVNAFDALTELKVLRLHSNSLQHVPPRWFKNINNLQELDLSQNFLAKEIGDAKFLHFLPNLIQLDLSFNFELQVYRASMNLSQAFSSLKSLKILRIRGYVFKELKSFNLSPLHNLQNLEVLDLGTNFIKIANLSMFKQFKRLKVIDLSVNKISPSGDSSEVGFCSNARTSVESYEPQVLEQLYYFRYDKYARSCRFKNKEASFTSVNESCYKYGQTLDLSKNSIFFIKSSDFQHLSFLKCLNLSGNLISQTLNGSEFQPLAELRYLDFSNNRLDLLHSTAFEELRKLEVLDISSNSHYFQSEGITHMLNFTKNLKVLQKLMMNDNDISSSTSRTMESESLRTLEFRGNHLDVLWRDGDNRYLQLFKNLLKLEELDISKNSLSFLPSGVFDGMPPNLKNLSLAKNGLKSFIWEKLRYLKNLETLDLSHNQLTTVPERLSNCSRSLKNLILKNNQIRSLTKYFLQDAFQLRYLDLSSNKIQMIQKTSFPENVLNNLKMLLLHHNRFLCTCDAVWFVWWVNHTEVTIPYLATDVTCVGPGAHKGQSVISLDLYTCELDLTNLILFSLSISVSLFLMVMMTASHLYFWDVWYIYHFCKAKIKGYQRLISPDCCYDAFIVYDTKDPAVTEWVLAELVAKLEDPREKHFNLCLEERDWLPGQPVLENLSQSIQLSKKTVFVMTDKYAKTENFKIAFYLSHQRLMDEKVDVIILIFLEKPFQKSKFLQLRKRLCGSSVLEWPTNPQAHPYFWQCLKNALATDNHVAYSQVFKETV
The experiment in a line: In vivo target occupancy at TLR7 in cynomolgus monkey assessed as fold increase in GBP1 mRNA expression in nasal scrape at 30 ng/kg administered intranasally incubated for 24 hrs by TaqMan analysis (reference value: 2.4). It counts as functional. In general terms: Real-time PCR tracks product formation cycle by cycle.

Data set [4] deals with T1, Toll-like receptor 7 (Macaca fascicularis). Kind of data set: In vivo target occupancy at TLR7 in cynomolgus monkey assessed as fold increase in OAS2 mRNA expression in nasal scrape at 30 ng/kg administered intranasally incubated for 24 hrs by TaqMan analysis (reference value: 1). The data set is classed as functional.
Data set [5] deals with Mus musculus. The experiment in a line: Increase in IFN-alpha level in BALB/c mouse serum at 0.3 mg/kg, administered intranasally after 6 hrs by ELISA. It counts as functional, organism-based. Background: An ELISA detects its analyte on a solid surface through an enzyme-linked reagent.
A further data set addresses T2, Toll-like receptor 7 (Homo sapiens, UniProt Q9NYK1).
T2 sequence (Q9NYK1 whole entry): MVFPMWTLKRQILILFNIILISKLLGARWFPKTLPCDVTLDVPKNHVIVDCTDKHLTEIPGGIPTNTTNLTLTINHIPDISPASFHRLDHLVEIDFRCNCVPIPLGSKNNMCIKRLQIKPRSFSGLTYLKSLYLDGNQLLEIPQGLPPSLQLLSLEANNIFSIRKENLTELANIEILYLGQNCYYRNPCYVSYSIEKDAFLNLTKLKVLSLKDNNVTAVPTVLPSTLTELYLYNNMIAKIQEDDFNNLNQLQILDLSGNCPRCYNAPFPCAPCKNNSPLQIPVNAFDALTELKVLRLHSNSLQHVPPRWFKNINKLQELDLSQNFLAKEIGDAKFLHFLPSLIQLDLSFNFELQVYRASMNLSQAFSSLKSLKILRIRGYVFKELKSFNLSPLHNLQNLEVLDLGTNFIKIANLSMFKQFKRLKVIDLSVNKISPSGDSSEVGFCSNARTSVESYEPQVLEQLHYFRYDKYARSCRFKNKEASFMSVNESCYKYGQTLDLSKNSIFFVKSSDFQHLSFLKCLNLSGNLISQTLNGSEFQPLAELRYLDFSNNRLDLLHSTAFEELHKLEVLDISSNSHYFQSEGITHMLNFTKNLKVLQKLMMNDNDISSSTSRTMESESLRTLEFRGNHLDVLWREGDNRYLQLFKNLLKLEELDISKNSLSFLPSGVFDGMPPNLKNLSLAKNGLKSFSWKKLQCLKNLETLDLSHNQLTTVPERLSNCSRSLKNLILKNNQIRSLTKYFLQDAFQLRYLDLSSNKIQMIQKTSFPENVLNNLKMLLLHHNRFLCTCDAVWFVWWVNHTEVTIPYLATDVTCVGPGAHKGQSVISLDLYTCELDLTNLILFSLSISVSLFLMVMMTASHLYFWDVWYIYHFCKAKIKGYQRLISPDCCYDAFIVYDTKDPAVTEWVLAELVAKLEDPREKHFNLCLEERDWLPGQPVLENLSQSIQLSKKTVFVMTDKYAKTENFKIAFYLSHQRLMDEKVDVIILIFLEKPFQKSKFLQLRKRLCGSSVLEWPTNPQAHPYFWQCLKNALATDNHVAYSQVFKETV
Kind of data set: Agonist activity at TLR7 in human whole blood assessed as induction of IL-1beta production after 20 hrs by electrochemiluminescence assay. The data set is classed as tissue-based.

The subject of data set [6] is Mus musculus. Kind of data set: Increase in IFN-alpha level in intranasally dosed BALB/c mouse nasal lavage after 6 hrs. The data set is classed as functional, organism-based.

Calls of active or inactive are those of the source. No cut-off for these calls is given here.

As usually defined, the EC50 is the midpoint of the concentration-response curve.

`CCC[C@H](C)Oc1nc(N)c2[nH]c(=O)n(CCCCCN3CCCCC3)c2n1` [GSK-2245035]: the Activity result in data set [1] was “Toxic”. Moreover, the result with Mus musculus [2] was Active. For the same compound, the figures for the fold change (FC) in data set [3] and in data set [4] were 97.6 and 180, respectively. Moreover, the result with Mus musculus [5] and with Mus musculus [6] was inactive. Besides, on Toll-like receptor 7, the concentration for a half-maximal effect (EC50) is 5.01 µM.

Source of the values: ChEMBL document CHEMBL5252515, “Discovery of 6-Amino-2-{[(1S)-1-methylbutyl]oxy}-9-[5-(1-piperidinyl)pentyl]-7,9-dihydro-8H-purin-8-one (GSK2245035), a Highly Potent and Selective Intranasal Toll-Like Receptor 7 Agonist for the Treatment of Asthma” (J Med Chem, 2016).
